For 30 compounds, IC50 results are on record in patent publication US6855730B2, “3-methylidenyl-2-indolinone modulators of protein kinase” (Sugen, Inc., priority 1998, dated 2005).

Sequence of EGFR (P00533 25-1210): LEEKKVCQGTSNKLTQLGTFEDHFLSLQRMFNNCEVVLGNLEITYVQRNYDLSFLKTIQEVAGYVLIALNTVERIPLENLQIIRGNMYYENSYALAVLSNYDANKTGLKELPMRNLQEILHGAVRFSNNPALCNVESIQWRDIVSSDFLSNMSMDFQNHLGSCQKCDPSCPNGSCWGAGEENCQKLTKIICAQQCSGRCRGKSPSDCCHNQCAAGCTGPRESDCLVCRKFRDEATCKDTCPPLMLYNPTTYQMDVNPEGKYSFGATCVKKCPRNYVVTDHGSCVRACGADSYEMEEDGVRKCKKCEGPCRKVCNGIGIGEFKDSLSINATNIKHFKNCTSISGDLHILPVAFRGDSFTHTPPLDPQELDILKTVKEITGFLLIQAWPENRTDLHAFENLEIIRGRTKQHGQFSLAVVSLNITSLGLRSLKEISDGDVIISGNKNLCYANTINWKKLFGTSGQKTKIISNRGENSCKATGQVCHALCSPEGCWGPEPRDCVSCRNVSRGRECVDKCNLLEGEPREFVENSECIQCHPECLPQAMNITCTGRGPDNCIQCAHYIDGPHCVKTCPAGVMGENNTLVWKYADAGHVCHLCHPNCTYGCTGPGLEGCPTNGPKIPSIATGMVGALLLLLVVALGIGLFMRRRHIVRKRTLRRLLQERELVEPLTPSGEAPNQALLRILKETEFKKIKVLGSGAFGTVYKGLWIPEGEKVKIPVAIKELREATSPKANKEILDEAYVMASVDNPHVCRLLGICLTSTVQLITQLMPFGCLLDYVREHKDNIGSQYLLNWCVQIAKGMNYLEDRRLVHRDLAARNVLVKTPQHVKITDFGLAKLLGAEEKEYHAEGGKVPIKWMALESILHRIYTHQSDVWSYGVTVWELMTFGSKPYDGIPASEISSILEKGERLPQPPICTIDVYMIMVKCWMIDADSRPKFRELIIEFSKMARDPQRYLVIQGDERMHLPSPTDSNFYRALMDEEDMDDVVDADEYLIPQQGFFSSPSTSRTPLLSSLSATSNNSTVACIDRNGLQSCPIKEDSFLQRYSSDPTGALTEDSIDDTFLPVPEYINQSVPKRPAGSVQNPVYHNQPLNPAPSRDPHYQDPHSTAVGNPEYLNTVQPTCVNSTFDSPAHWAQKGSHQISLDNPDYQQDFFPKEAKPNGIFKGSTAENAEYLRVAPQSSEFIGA

The target of this assay is EGFR (Homo sapiens, UniProt P00533). Description: EGFR assay (cellular ELISA, NIH 3T3/C7 cells). On the set-up: expressed in transfected cells; host or cells: NIH 3T3/C7. It counts as cell-based. Conditions: read-out: cell EGF IC50. The gist of the method:
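NIH 3T3/C7 cells expressing human EGFR, serum-starved (0.5% serum) ~40 h, treated with compound (1:200 of 10 mg/ml DMSO stock, 1% DMSO) then stimulated 5 min with 25 nM EGF. Lysate EGFR captured by antibody and phosphotyrosine detected by anti-Ptyr ELISA (OD 410 nm); % inhibition after negative-control subtraction.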
In general terms: An ELISA detects its analyte on a solid surface through an enzyme-linked reagent.
Usually IC50 stands for the concentration at which inhibition is half-maximal. For `CNC(=O)CCc1c(/C=C2\C(=O)Nc3ccccc32)[nH]c2c1CCCC2` [Example 201, N-Methyl-3-[2-(2-oxo-1,2-dihydroindol-3-ylidenemethyl)-4,5,6,7-tetrahydro-1H-indol-3-yl]-propionamide], the IC50 is above 100 µM. As to `NC(=O)CCc1c(/C=C2\C(=O)Nc3ccccc32)[nH]c2c1CCCC2` [Example 199, 3-[2-(2-Oxo-1,2-dihydroindol-3-ylidenemethyl)-4,5,6,7-tetrahydro-1H-indol-3-yl]-propionamide], the IC50 is above 100 µM.

Consider `Cc1c[nH]c(/C=C2\C(=O)Nc3ccc(Cl)cc32)c1CCC(=O)O` [Example 216, 3-[2-(5-Chloro-2-oxo-1,2-dihydroindol-3-ylidenemethyl)-4-methyl-1H-pyrrol-3-yl]-propionic acid], for which the IC50 was above 100 µM. Turning to `Nc1ccc2c(c1)/C(=C/c1ccc3[nH]ccc3c1)C(=O)N2` [Example 179, 5-Amino-3-(1H-indol-5-ylmethylene)-1,3-dihydro-indol-2-one], the half-maximal inhibitory concentration (IC50) is above 100 µM. To `Cc1c(/C=C2\C(=O)Nc3ccc(N)cc32)[nH]c2ccccc12` [Example 180, 5-Amino-3-(3-methyl-1H-indol-2-ylmethylene)-1,3-dihydroindol-2-one] belongs above 100 µM; to `O=C1Nc2ccc(C(=O)O)cc2/C1=C/c1c[nH]c2ccccc12` [Example 174, 3-(1H-Indol-3-ylmethylene)-2-oxo-2,3-dihydro-1H-indole-5-carboxylic acid], above 100 µM.

Regarding `CNS(=O)(=O)c1ccc2c(c1)/C(=C/c1cc3ccccc3[nH]1)C(=O)N2` [Example 173, 3-(1H-Indol-2-ylmethylene)-2-oxo-2,3-dihydro-1H-indole-5-sulfonic acid methylamide], the IC50 is above 100 µM. Turning to `O=C1Nc2ccc(C(=O)O)cc2/C1=C/c1ccc2[nH]ccc2c1` [Example 177, 3-(1H-Indol-5-ylmethylene)-2-oxo-2,3-dihydro-1H-indole-5-carboxylic acid], the IC50 is above 100 µM. To `COc1c(C(C)C)cc(/C=C2/C(=O)Nc3ccc(Cl)cc32)cc1C(C)C` [Example 2, 5-Chloro-3-(3,5-diisopropyl-4-methoxybenzylidene)-1,3-dihydroindol-2-one] belongs above 100 µM; to `O=C(O)CCc1ccccc1/C=C1/C(=O)Nc2ccccc21` [Example 214, 3-[2-(2-Oxo-1,2-dihydroindol-3-ylidenemethyl)-phenyl]-propionic acid], above 100 µM; to `Cc1cc(CCC(=O)O)c(/C=C2\C(=O)Nc3ccc(Br)cc32)[nH]1` [Compound 116, 3-[2-(5-Bromo-2-oxo-1,2-dihydroindol-3-ylidenemethyl)-5-methyl-1H-pyrrol-3-yl]-propionic acid], above 100 µM. As to `NS(=O)(=O)c1ccc2c(c1)/C(=C/c1c[nH]c3ccccc13)C(=O)N2` [Example 172, 3-(1H-Indol-3-ylmethylene)-2-oxo-2,3-dihydro-1H-indole-5-sulfonic acid amide], the IC50 was above 100 µM. To `O=C1Nc2ccc(N=Cc3cc4ccccc4[nH]3)cc2C1=Cc1cc2ccccc2[nH]1` [Example 171, 3-(1H-indol-2-ylmethylene)-5-[(1H-indol-2-ylmethylene)-amino]-1,3-dihydroindol-2-one] belongs above 100 µM. To `O=C(O)CCc1c(/C=C2\C(=O)Nc3cc(Cl)ccc32)[nH]c2c1CCCC2` [Example 195, 3-[2-(6-Chloro-2-oxo-1,2-dihydroindol-3-ylidenemethyl)-4,5,6,7-tetrahydro-1H-indol-3-yl]-propionic acid] belongs above 100 µM; to `O=C(O)CCc1c(/C=C2\C(=O)Nc3ccc(Cl)cc32)[nH]c2c1CCCC2` [Example 191, 3-[2-(5-Chloro-2-oxo-1,2-dihydroindol-3-ylidenemethyl)-4,5,6,7-tetrahydro-1H-indol-3-yl]-propionic acid], above 100 µM; to `Cc1c[nH]c(/C=C2\C(=O)Nc3ccccc32)c1CCC(=O)O` [Example 215, 3-[4-Methyl-2-(2-oxo-1,2-dihydroindol-3-ylidenemethyl)-1H-pyrrol-3-yl]-propionic acid], above 100 µM.

`COc1ccc2c(c1)/C(=C/c1[nH]cc(C)c1CCC(=O)O)C(=O)N2` [Example 222, 3-[2-(5-Methoxy-2-oxo-1,2-dihydroindol-3-ylidenemethyl)-4-methyl-1H-pyrrol-3-yl]-propionic acid]: the IC50 was above 100 µM. To `O=C(O)CCc1c(/C=C2\C(=O)Nc3ncccc32)[nH]c2c1CCCC2` [Example 203, 3-[2-(2-Oxo-1,2-dihydropyrrolo[2,3-b]pyridin-3-ylidenemethyl)-4,5,6,7-tetrahydro-1H-indol-3-yl]-propionic acid] belongs above 12.5 µM; to `Cc1[nH]c2ccccc2c1/C=C1\C(=O)Nc2ccc(C(=O)O)cc21` [Example 182, 3-(2-Methyl-1H-indol-3-ylmethylene)-2-oxo-2,3-dihydro-1H-indole-5-carboxylic acid], above 100 µM. Consider `CC(C)NS(=O)(=O)c1ccc2c(c1)C(=Cc1[nH]c3c(c1CCC(=O)O)CCCC3)C(=O)N2` [Example 208, 3-[2-(5-Isopropylaminosulfonyl-2-oxo-1,2-dihydroindol-3-ylidenemethyl)-4,5,6,7-tetrahydro-1H-indol-3-yl]-propionic acid], for which the IC50 is above 100 µM.

With `COc1c(C(C)C)cc(/C=C2/C(=O)Nc3ccccc32)cc1C(C)C` [Example 1, 3-(3,5-Diisopropyl-4-methoxybenzylidene)-1,3-dihydroindol-2-one], the IC50 is 45.7 µM. To `CN(C)CCCc1c(/C=C2\C(=O)Nc3ccccc32)[nH]c2c1CCCC2` [Example 198, 3-[3-(3-Dimethylaminopropyl)-4,5,6,7-tetrahydro-1H-indol-2-ylmethylene]-1,3-dihydroindol-2-one] belongs above 100 µM; to `O=C(CCc1c(/C=C2\C(=O)Nc3ccccc32)[nH]c2c1CCCC2)NCCN1CCOCC1` [Example 202, N-(2-Morpholin-4-ylethyl)-3-[2-(2-oxo-1,2-dihydroindol-3-ylidenemethyl)-4,5,6,7-tetrahydro-1H-indol-3-yl]-propionamide], above 100 µM; to `CCOC(=O)c1c(C)[nH]c(/C=C2\C(=O)Nc3ccc(Br)cc32)c1CCC(=O)O` [Compound 114, 5-(5-Bromo-2-oxo-1,2-dihydroindol-3-ylidenemethyl)-4-(2-carboxyethyl)-2-methyl-1H-pyrrole-3-carboxylic acid ethyl ester], above 100 µM. To `COc1cccc(-c2ccc3c(c2)NC(=O)/C3=C\c2[nH]c3c(c2CCC(=O)O)CCCC3)c1` [Example 204, 3-{2-[6-(3-Methoxyphenyl)-2-oxo-1,2-dihydro-indol-3-ylidenemethyl]-4,5,6,7-tetrahydro-1H-indol-3-yl}-propionic acid] belongs above 100 µM; to `O=C1Nc2ccccc2/C1=C/c1[nH]c2c(c1CCC(=O)N1CCOCC1)CCCC2` [Example 200, 3-[3-(3-Morpholin-4-yl-3-oxopropyl)-4,5,6,7-tetrahydro-1H-indol-2-ylmethylene]-1,3-dihydroindol-2-one], above 100 µM. To `COc1ccc2c(c1)NC(=O)/C2=C\c1[nH]cc(C)c1CCC(=O)O` [Example 217, 3-[2-(6-Methoxy-2-oxo-1,2-dihydroindol-3-ylidenemethyl)-4-methyl-1H-pyrrol-3-yl]-propionic acid] belongs above 100 µM; to `Cc1c[nH]c(C=C2C(=O)Nc3cc(Cl)ccc32)c1CCC(=O)O` [Example 219, 3-[2-(6-Chloro-2-oxo-1,2-dihydroindol-3-ylidenemethyl)-4-methyl-1H-pyrrol-3-yl]-propionic acid], above 100 µM; to `CN(C)C(=O)CCc1c(/C=C2\C(=O)Nc3ccccc32)[nH]c2c1CCCC2` [Example 197, N,N-Dimethyl-3-[2-(2-oxo-1,2-dihydroindol-3-ylidenemethyl)-4,5,6,7-tetrahydro-1H-indol-3-yl]-propionamide], above 100 µM. `Cc1[nH]c2ccccc2c1/C=C1\C(=O)Nc2ccc(N)cc21` [Example 187, 5-Amino-3-(2-methyl-1H-indol-3-ylmethylene)-1,3-dihydroindol-2-one]: the IC50 is above 100 µM.
